Source: patent EP1997826A2, “Synthetic ligands for immunoglobulins and pharmaceutical compositions containing them” (Tecnogen S.p.A., priority 2007, dated 2008)

Legend:
RBL 2H3 cells = assay: assay for degranulation of the RBL 2H3 cells (release of β-hexose-aminidase induced by anti-DNP IgE and DNP-BSA antigen); format: cell-based, rat; conditions: for percentage inhibition of the degranulation reaction: added together with the antigen; for concentration able to reduce 50% of the cellular degranulation: RBL 2H3 cells, 0.5 µg/ml IgE, 0.05 µg/ml DNP-BSA; for IC50: read-out: concentration able to reduce 50% of the cellular degranulation
Excerpt: The RBL 2H3 cell line, rat basophils that express the receptor with high affinity for the immunoglobulins of class E (FcεRl), is widely used for investigating allergic reactions, because in this cell line the chemical mediators of inflammation are released as a result of allergen specific-IgE-FcεRI binding.
Release of the enzyme β-hexose-aminidase, which is present together with histamine in the granules of mast cells and basophils, can be used as an index of cellular degranulation (Tanaka et al., 1991, Chem. Pharm. Bull, 39, 2072-2076; McCloskey et al., 1988, Proc. Natl. Acad. Sci., USA, 85, 7260-7264).
The activity of the enzyme β-hexose-aminidase, released by the stimulated RBL 2H3 cells, was determined by the method described by Yamanishi et al., 1995, Jour. Biotech. Biochem., 59 (7), 1272-1275, which envisages measurement of the enzymatic activity by measuring the absorbance of the product p-nitrophenol generated by the synthetic substrate p-nitrophenyl-N-acetyl-β-D-glucosamide. 1x10^5 RBL 2H3 cells, trypsinized from plates at confluence, were resuspended in a volume of 80 µl of the culture medium (MEM + 10% inactivated fetal bovine serum) and distributed in each well of the 96-well plates (Costar). After 24 hours, 20 µl of medium containing anti-2,4-dinitrophenol monoclonal IgEs (DNP, Sigma, Cat. No. D-8406) was added to each well.
The microplates were incubated at 37°C for one hour and then washed three times with 100 µl of HBS buffer solution (10 mM HEPES, 135 mM NaCl, 5 mM KCI, 1 mM CaCl2, 0.5 mM MgCl2, 5.6 mM glucose, 0.1 % BSA, pH 7.4). After the washings, 100 µl of HBS containing the 2,4-dinitrophenol antigen conjugated to BSA (Sigma, Cat. No. A-6661) was added. As a control, 100 µl of HBS containing 1% Triton X-100 was added to some wells to determine the total amount of enzyme contained in the cellular granules.
After further incubation at 37°C for two hours, 30 µl of cellular supernatant or of cellular lysate was transferred to a new microplate, to which 50 µl of sodium citrate buffer at pH 4.5, containing 4 mM p-nitrophenyl-N-acetyl-β-D-glucosaminide (Sigma, Cat. No. N9376), a specific substrate for the enzyme β-hexose-aminidase, had been added beforehand. After incubation for two hours at 37°C, the reaction was stopped by adding 100 µl of glycine solution 0.2 M, pH 10.7. The enzymatic activity was determined by measuring the absorbance at 405 nm with a Microplate Reader Model 3550 EIA (Bio-Rad).
In preliminary experiments the immunoglobulins E and the antigen were added at various concentrations in order to determine the optimum concentrations for induction of the reaction of enzymatic release. The conditions identified experimentally correspond to 0.5 µg/ml of IgE and 0.05 µg/ml of antigen DNP conjugated to BSA.
To verify the capacity of the peptides of formula IB and of comparative peptides for inhibiting the degranulation of the RBL 2H3 cells, the peptides were added in the assay together with the antigen at concentrations between 0.1 and 500 µg/ml.

[1] = system: immunoglobulins (IgG, IgM, IgA and IgE); assay: affinity chromatography of raw human serum on peptide immobilized on CH-Sepharose-4B; format: binding; conditions: Western Blot, albumin not retained
Method: The peptide of formula (IB) prepared in Example 1 (10 mg) was dissolved in 5 ml of aqueous solution of sodium bicarbonate 0.1 M, NaCl 0.5 M, pH 8.5 and then added to 0.5 g of activated resin CH-Sepharose-4B (Amersham Biosciences, Uppsala, Sweden, Cat. No. 17-0490-01), a preactivated support for affinity chromatography for the direct coupling of peptides and proteins. The suspension was stirred for 24 hours and the extent of coupling was monitored by taking samples of the reaction mixture, at various times, followed by analysis by RP-HPLC.
Approximately 90-95% of the initial peptide is found to be bound covalently to the resin after 24 hours. The derivatized resin is incubated with 0.1 M Tris, pH 8.5 to block any sites of the resin that are still reactive, and is then packed in a glass column 100 x 0.6 cm I.D. with a variable piston (OMNIFIT, Cat. No. 006CC-06-10-FF).
For the purification of immunoglobulins from serum, the column was equilibrated with a buffer 50 mM Bis-Tris (Sigma, Cat. No. B9754), pH 6.5, to a flow of 1 ml/min, monitoring the eluent at 280 nm. Raw rabbit serum (Sigma, Cat, No. R9133) was loaded in the column and, after elution of the material that was not bound, the eluent was changed to acetic acid 0.1 M, pH 3.0, for elution of the adsorbed material. […]

[2] = Concentration of Peptide 0.1 µg/ml
[3] = Concentration of Peptide 1 µg/ml
[4] = Concentration of Peptide 10 µg/ml
[5] = Concentration of Peptide 50 µg/ml
[6] = Concentration of Peptide 100 µg/ml
[7] = Concentration of Peptide 500 µg/ml

C[C@H](O)[C@@H](NC(=O)[C@H](N)CCCNC(=N)N)C(=O)N[C@H](Cc1ccc(O)cc1)C(=O)NCCCC[C@H](NC(=O)[C@@H](Cc1ccc(O)cc1)NC(=O)[C@H](NC(=O)[C@H](N)CCCNC(=N)N)[C@H](C)O)C(=O)NCCCC[C@H](NC(=O)[C@H](CCCCNC(=O)[C@@H](Cc1ccc(O)cc1)NC(=O)[C@H](NC(=O)[C@H](N)CCCNC(=N)N)[C@H](C)O)NC(=O)[C@@H](Cc1ccc(O)cc1)NC(=O)[C@H](NC(=O)[C@H](N)CCCNC(=N)N)[C@H](C)O)C(=O)NCC(=O)O [Comparative peptide, (H-D-Arg-D-Thr-D-Tyr-)4-L-Lys2-L-Lys-Gly-OH, reference compound]
percentage inhibition of the degranulation reaction (RBL 2H3 cells; [2]): 0% | percentage inhibition of the degranulation reaction (RBL 2H3 cells; [3]): 40% | percentage inhibition of the degranulation reaction (RBL 2H3 cells; [4]): 49% | percentage inhibition of the degranulation reaction (RBL 2H3 cells; [5]): 59% | percentage inhibition of the degranulation reaction (RBL 2H3 cells; [6]): 62% | percentage inhibition of the degranulation reaction (RBL 2H3 cells; [7]): 70% | concentration able to reduce 50% of the cellular degranulation (RBL 2H3 cells): 10 µg/mL | IC50 (RBL 2H3 cells): 4600 nM

(H-L-Cys(p-MeOBzl)-D-Arg-D-Thr-D-Tyr)4-L-Lys2-L-Lys-L-Lys-OH [Peptide IB]
retention of immunoglobulins by the peptide column [1]: able to retain the immunoglobulins (IgG, IgM, IgA and IgE) | percentage inhibition of the degranulation reaction (RBL 2H3 cells; [2]): 20% | percentage inhibition of the degranulation reaction (RBL 2H3 cells; [3]): 76% | percentage inhibition of the degranulation reaction (RBL 2H3 cells; [4]): 80% | percentage inhibition of the degranulation reaction (RBL 2H3 cells; [5]): 82% | percentage inhibition of the degranulation reaction (RBL 2H3 cells; [6]): 85% | percentage inhibition of the degranulation reaction (RBL 2H3 cells; [7]): 90% | concentration able to reduce 50% of the cellular degranulation (RBL 2H3 cells): 1 µg/mL | activity greater than the activity of the comparative peptide (RBL 2H3 cells; degranulation of RBL 2H3 cells): approx. 15 times | IC50 (RBL 2H3 cells): ~300 nM
